A short description of this assay: fluorescent zinc titration of ZPP1, fit to two-step binding model. From the text:
Since ZPP1 contains two zinc-binding units, the following stepwise equilibria describe the binding events.
Two apparent binding constants, (K1app=1.52×10^11 M^−1, K2app=1.02×10^8 M^−1) were obtained by fitting the experimental data to the two-step model with high fidelity.

Where [1] appears, read: fluorescence titration, two-step model fit.

In the case of `O=C(O)c1ccccc1-c1c2cc(Cl)c(=O)c(CN(Cc3ccccn3)Cc3cnccn3)c-2oc2c(CN(Cc3ccccn3)Cc3cnccn3)c(O)c(Cl)cc12` [ZPP1], under setting [1], the “apparent binding constant K1app (first step zinc binding)” value was 1.52e+11 M⁻¹ and the “apparent binding constant K2app (second step zinc binding)” value came to 1.02e+08 M⁻¹. Besides, the “zinc equivalents at which fluorescence intensity reaches its maximum” value (state B) is ~2 equiv. Further, the “fluorescence response on addition of up to 1 equiv of zinc” value (up to 1 equiv zinc (state A)) is reported as “only a slight fluorescence increase”.

(Values after patent US8574914B2, “Methods for mobile zinc measurement” (The General Hospital Corporation, priority 2009, dated 2013).)
